Measurements from patent publication US20060287248A1, “Asymmetric dosing methods” (Schering Corporation, priority 2005, published 2006).

Experiments:
melanoma A375 tumors = melanoma A375 tumors implanted into the left ventricle of the heart; cited from earlier work
HCV = assay: Viral load in HCV patients on regimens of compound of Formula Ia (reverse transcriptase PCR, FIG. 1); assay type: in vivo, human; settings: Patients with HCV, 200 mg BID, 400 mg BID, 400 mg TID
Text: FIG. 1 is a graph of mean viral load measured over time with administration of various doses and regimens of compound of Formula Ia; and
Studies of viral activity in HCV infected patients indicate that viral activity and resulting viral load are influenced by the circadian rhythm of the patient. […] Thus, in one aspect of the invention, the one or more discrete dosages are adjusted in amount to provide a highest dose or doses at a time or times corresponding to the time interval when hepatitis-C virus replication is highest.
Patients with HCV were put on various treatment regimens including 200 mg. BID, 400 mg. BID, and 400 mg. TID of a compound of Formula Ia, to determine efficacy of the regimens in reducing viral load. Blood samples were taken at predose and at 0.25, 0.5, 0.75, 1, 1.5, 2, 3, 4, 5, 6, 8, 10, 12, 18, 24, 36, 48, 72, 144 hr post dose using reverse transcriptase PCR methods.

[1] = Serum levels of compound Ia on day 14 in healthy subjects, BID vs TID regimen (FIG. 2); assay type: in vivo, human; settings: 400 mg TID; for serum/plasma level before the morning dose (time zero), 8 hours after the previous dose: healthy subjects, compared with 8 hours after the morning dose
Protocol: Healthy subjects were put on one of two regimens of 400 mg BID or 400 mg. TID of a compound of Formula Ia. Blood samples were taken on day 14 immediately prior to the morning dose (time zero) and at 12 hours post-dose (for the BID regimen) or 8 hours post-dose (for the TID regimen).

| SMILES | distant bone metastasis to the femur and tibia (melanoma A375 tumors) | pattern of viral load decline over time (HCV) | pattern of viral load decline over time (HCV; listed as Formula la) | viral load as measured in serum (HCV; predose to 144 hr post dose) | plasma level 8 hours after the morning dose ([1]; compared with level before the morning dose) | serum/plasma level before the morning dose (time zero), 8 hours after the previous dose [1] | serum/plasma level before the morning dose (time zero), 8 hours after the previous dose ([1]; listed as formula la) |
| --- | --- | --- | --- | --- | --- | --- | --- |
| CN(C)C(=O)[C@H](Cc1ccccc1)NC(=O)[C@H]1O[C@@H]1C(=O)NCCc1ccccn1 [CLIK-148] | reduced distant bone metastasis |  |  |  |  |  |  |
| CC(C)(C)NC(=O)N[C@H](C(=O)N1C[C@H]2[C@@H]([C@H]1C(=O)NC(CC1CCC1)C(=O)C(N)=O)C2(C)C)C(C)(C)C (stereo partly drawn) [Formula Ia, (1R,5S)-N-[3-Amino-1-(Cyclobutylmethyl)-2,3-Dioxopropyl]-3-[2(S)-[[[(1,1-Dimethylethyl)Amino]Carbonyl]Amino]-3,3-Dimethyl-1-Oxobutyl]-6,6-Dimethyl-3-Azabicyclo[3.1.0]Hexan-2(S)-Carboxamide] |  | exhibited cyclical fluctuations corresponding to the patients' sleep/wake cycles | the decline in viral load is cyclical | declined with all regimens | much lower | significantly higher at time zero | highest in the morning |
